From patent US5331094A, “Purified active somatostatin receptor” (American Cyanamid Company, priority 1992, dated 1994)
pKd: −log10 of the molar value. Bridge positions count the residues as written; N and C are the ends. Square brackets hold non-standard residues; d marks the D form. Peptide text beside a SMILES is read from it. * marks the point of attachment. Biotin = O=C1N[C@H]2[C@H](CS[C@H]2CCCCC(=O)*)N1; Tyr(3-I) = N[C@@H](Cc1ccc(O)c(I)c1)C(=O)O; Ahx = NCCCCCC(=O)O

Tests used:
SRIF receptor [1] = test: Scatchard analysis of binding of [125I]-labelled SRIF analogs to GH4 C1 membranes; set-up: species or system rat; conditions: GH4 C1 membranes (FIG. 2), read-out: dissociation constant (KD)
Experimental: 1. Standard Binding Assays--Binding assays are done in a binding buffer containing 50 mM HEPES (pH 7.4), 0.5% BSA and 5 mM MgCl2. The standard assay for [^125 I]SRIF analog binding to GH4 C1 membranes, done in 96 well microtiter plates (Dynataech Immulon II Removawell plates), is carried out as follows: 1. Radioligand is diluted in binding buffer+ PMSF/Baci to the desired cpm per vol. of 50 μl and then 50 μl aliquots are added to the wells. For non-specific binding samples, 5 μl of 40 μM cold S14 is also added per well. 2. Binding is initiated by adding 150 μl per well of membrane diluted to the desired concentration (10-30 ug membrane protein/well) in binding buffer+ PMSF/Baci. Plates are then covered with Linbro mylar plate sealers (Flow Labs) and placed on a Dynatech Microshaker II and binding is allowed to proceed at room temperature for 1-2 hours. Binding is stopped by centrifuging the plate for 15 minutes at 2,000×g. The supernatants are dumped off and membrane pellets washed once by addition of 200 μl of ice cold binding buffer, brief shaking and recentrifugation. Finally the individual wells are placed in 12×75 mm tubes and counted in an LKB Gammamaster counter (78% efficiency). Specific binding by this method is identical to that measured when free ligand is removed by rapid (3-5 seconds) filtration and washing on polyethyleneimine-coated glass fiber filters.
Because Bio-C6-S14, Bio-C12-S14 and Bio-S28 all contain tyrosine residues, it is possible to prepare their [^125 I] labelled analogs and carry out Scatchard analyses of their binding affinities relative to [^125 I]Tyr11-S14 (FIG. 2). As shown in the figure, the [^125 I]-labelled peptides fall in the same order of potency as their non-labelled forms. The dissociation constants (KDs) and relative binding affinities are [^125 I]Tyr11-S14 (0.1 nM)>[^125 I]Bio-S28 (0.2 nM)>[^125I]Bio-6C-S14 (0.3 nM)>[^125 I]Bio-12C-S14 (0.4 nM).

SRIF receptor [2] = test: Binding of [125I]Bio-SRIF analogs to GH4 C1 membranes (CPM bound); set-up: species or system rat; conditions: for CPM bound/mg membrane protein (total): after the binding step; for CPM bound/mg membrane protein (non-specific): in the presence of 1 uM cold S14
Experimental: 3. Chemical cross-linking of radioligand with receptor is done after a binding step identical to the standard assay. However, the wash step is done with binding buffer minus BSA to reduce the possibility of non-specific cross-linking of radioligand with BSA. The cross-linking step is carried out as described below.
(§1) To compare the three biotinyl-SRIF analogs in terms of binding to streptavidin, the following experiment is done. [^125 I]Bio-SRIF analogs are bound to GH4 C1 membranes as described ("Methods: Receptor Binding Methods, 3"). All radioligands are at a concentration of […] cpm/ml. For each radioligand, a control for non-specific binding was done in the presence of 1 uM cold S14. CPM bound/mg membrane protein after the binding step are as follows: [^125 I]Bio-6C-S14=755,020 (total) and 43,361 (non-specific); [^125 I]Bio-12C=S14=633,134 (total) and 39,538 (nonspecific); [^125 I]Bio-S28=1,065,512 (total) and 35,049 (nonspecific). The membrane pellets are solubilized in solubilization buffer containing 0.15% deoxycholate:lysolecithin and 0.2 mM MgCl2 as described ("Methods: Membrane Solubilization"). […] One ml samples of solubilized membranes are incubated with 0.05 ml vols of streptavidin-agarose at 4°-10° C. on a tube rotator for the times shown. Non-specific binding samples are not done due to the low levels of non-specific binding. At the times shown, the […] beads are spun down and 100 ul samples of supernatant are counted. The cpm are compared to initial cpm in the sample and % binding to SA is calculated from this. Also, it should be noted that binding of cpm from the supernatant is considered to parallel the binding of R:L complex. Several observations confirm that this is a valid assumption.

Immobilized Streptavidin [3] = target: T1, Immobilized Streptavidin (Streptomyces avidinii, UniProt P22629); test: Binding of [125I]-labelled biotinyl-SRIFs (solubilized R:L complex) to immobilized streptavidin; conditions: for Initial CPM: 100 ul of initial 100,000 x g supernatant containing soluble R:L complex; for CPM (non-bound), 1 hour: 100 ul supernatant after 1 hour incubation with SA-agarose; for CPM (non-bound), 1 hour / CPM (non-bound), 3 hours: 4-10 C; for CPM (non-bound), 3 hours: 100 ul supernatant after 3 hours incubation with SA-agarose; for % Binding of Radioligand to SA-Agarose, 1 hour, % Bound: 1 hour incubation with SA-agarose; for % Binding of Radioligand to SA-Agarose, 3 hours, % Bound: 3 hours incubation with SA-agarose
T1 construct: purchased Pierce Chemical Co
Experimental: as §1

SRIF receptor [4] = test: Tracing of SRIF R:L complex with [125I]Bio-S28: membrane binding and deoxycholate:lysolecithin solubilization; set-up: species or system rat
Experimental: 1. Binding of biotinyl-SRIF to GH4 C1 membranes. The binding step is carried out as described in Section 4 of "Receptor Binding Methods". Incubations are for 1 hour at room temperature. In the standard purification protocol, the binding incubations contain 10 nM Bio-S29/ [^125 I]Bio-S28 is added as a tracer at levels of 5,000-100,000 cpm per mg of membrane protein. Control incubations contain 10 uM cold S14 to saturate the receptor with non-biotinylated ligand.
2. Solubilization of receptor:ligand complex. This is done as described ("Membrane Solubilization"), with 0.15% deoxycholate:lysolecithin in solubilization buffer containing 0.2 mM MgCl2, to obtain 100,000×g supernatants containing solubilized R:L complex.
(§2) A preparation of SRIF receptor is purified from 17 mg GH4 C1 pituitary cell membranes as described in "Methods: Receptor Purification". Some important features of this experiment are as follows: Two 17 mg samples of membranes are used. Both are incubated with 10^-8 M Bio-S28. However, one sample also receives 10^-5 M non-biotinyl S14 for 2-3 minutes before addition of any Bio-S28. This serves to block binding of Bio-S28 and creates a control to show non-specific binding of proteins to the streptavidin column. Also, each sample receives 1.5×10^8 cpm of [^125 I]Bio-S28 as a tracer. This is added 2-3 minutes before the addition of cold Bio-S28. After a 1-hour binding step, the membranes are washed in binding buffer without BSA and solubilized in solubilization buffer containing 0.15% deoxycholate:lysolecithin and 0.2 mM MgCl2. Each 100,000×g supernatant (17 ml) is incubated with 0.6 ml of streptavidin-agarose for 4 hours at 4°-10° C. The SA-agarose is transferred to a 0.7 cm diameter column, washed and eluted with EDTA/EGTA/GTP-gamma-S as described ("Methods: Receptor Purification").
(§3) Radioligand is followed through the procedure to estimate solubilization of R:L complex and % initial binding of R:L complex to immobilized streptavidin.

Immobilized Streptavidin [5] = target: T1, Immobilized Streptavidin; test: Tracing of SRIF R:L complex with [125I]Bio-S28: adsorption to streptavidin-agarose during purification; format: binding
Experimental: 3. Adsorption of solubilized R:L complex to streptavidin. Immobilized streptavidin (streptavidin cross-linked to 6% beaded agarose, Pierce Chemical Co.; "SA-agarose") is washed in solubilization buffer and added to the solubilized membranes as 1/30 of the final volume. This mixture is incubated with constant stirring by end-over-end rotation for 4-5 hours at 4°-10° C. Then the mixture is applied to a column and the non-bound material is washed through. Binding of radioligand to SA-agarose is determined by comparing cpm in the 100,000×g supernatant with that in the column effluent after adsorption to SA-agarose. Finally, the column is washed with 12-15 column volumes of solubilization buffer+0.15% deoxycholate:lysolecithin +1/500 (vol/vol) 100×4pase.
as §2, §3
As discussed above, this should approximate the binding of R:L complex to streptavidin.

SRIF receptor [6] = conditions: pituitary cells; Kirk et al. 1984; cited from earlier work
[7] = 10^-8 M Bio-S28 + 10^-5 M S14 (NSB)

T1 sequence (P22629 25-183): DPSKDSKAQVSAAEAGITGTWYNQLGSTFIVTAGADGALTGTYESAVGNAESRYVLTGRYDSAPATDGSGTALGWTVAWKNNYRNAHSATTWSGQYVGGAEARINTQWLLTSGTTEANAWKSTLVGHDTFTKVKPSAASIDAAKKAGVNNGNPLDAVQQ

| Molecule | pKd (SRIF receptor [1]) | CPM bound/mg membrane protein (total) (SRIF receptor [2]) | CPM bound/mg membrane protein (non-specific) (SRIF receptor [2]) | Initial CPM (Immobilized Streptavidin [3]) | CPM (non-bound), 1 hour (Immobilized Streptavidin [3]) | CPM (non-bound), 3 hours (Immobilized Streptavidin [3]) | % Binding of Radioligand to SA-Agarose, 1 hour, % Bound (Immobilized Streptavidin [3]) | % Binding of Radioligand to SA-Agarose, 3 hours, % Bound (Immobilized Streptavidin [3]) | CPM Solubilized by Deoxycholate:Lysolecithin (%) (SRIF receptor [4]; 10^-8 M Bio-S28) | CPM Initially Bound to Membranes (SRIF receptor [4]; [7]) | CPM Solubilized by Deoxycholate:Lysolecithin (%) (SRIF receptor [4]; [7]) | CPM Initially Bound to Membranes (SRIF receptor [4]; ligand in binding step 10^-8 M Bio-S28) | Solubilized CPM Non-Bound to Streptavidin (%) (Immobilized Streptavidin [5]; 10^-8 M Bio-S28) | Solubilized CPM Non-Bound to Streptavidin (%) (Immobilized Streptavidin [5]; [7]) | specifically bound radioligand bound to streptavidin (Immobilized Streptavidin [5]; calculation from Table 2) | decrease of binding of [125I]Tyr1-SRIF (SRIF receptor [6]) |
| --- | --- | --- | --- | --- | --- | --- | --- | --- | --- | --- | --- | --- | --- | --- | --- | --- |
| C[C@H](NC(=O)CCCCCNC(=O)CCCC[C@@H]1SC[C@@H]2NC(=O)N[C@@H]21)C(=O)NCC(=O)N[C@H]1CSSC[C@@H](C(=O)O)NC(=O)[C@H](CO)NC(=O)[C@H]([C@@H](C)O)NC(=O)[C@H](Cc2ccc(O)c(I)c2)NC(=O)[C@H]([C@@H](C)O)NC(=O)[C@H](CCCCN)NC(=O)[C@H](Cc2c[nH]c3ccccc23)NC(=O)[C@H](Cc2ccccc2)NC(=O)[C@H](Cc2ccccc2)NC(=O)[C@H](CC(N)=O)NC(=O)[C@H](CCCCN)NC1=O [[^125 I]Bio-6C-S14] ({Biotin-Ahx}-AGCKNFFWKT[Tyr(3-I)]TSC-OH; disulfide 3-14) | 9.52 | 755,020 CPM bound/mg membrane protein | 43,361 CPM bound/mg membrane protein | 63,490 CPM | 28,381 CPM | 16,228 CPM | 55% | 74% |  |  |  |  |  |  |  |  |
| C[C@H](NC(=O)CCCCCNC(=O)CCCCCNC(=O)CCCC[C@@H]1SC[C@@H]2NC(=O)N[C@@H]21)C(=O)NCC(=O)N[C@H]1CSSC[C@@H](C(=O)O)NC(=O)[C@H](CO)NC(=O)[C@H]([C@@H](C)O)NC(=O)[C@H](Cc2ccc(O)c(I)c2)NC(=O)[C@H]([C@@H](C)O)NC(=O)[C@H](CCCCN)NC(=O)[C@H](Cc2c[nH]c3ccccc23)NC(=O)[C@H](Cc2ccccc2)NC(=O)[C@H](Cc2ccccc2)NC(=O)[C@H](CC(N)=O)NC(=O)[C@H](CCCCN)NC1=O [[^125 I]Bio-12C-S14] ({Biotin-Ahx-Ahx}-AGCKNFFWKT[Tyr(3-I)]TSC-OH; disulfide 3-14 (inferred); C-terminus assumed) | 9.40 | 633,134 CPM bound/mg membrane protein | 39,538 CPM bound/mg membrane protein | 54,344 CPM | 23,391 CPM | 13,071 CPM | 57% | 76% |  |  |  |  |  |  |  |  |
| CC(C)C[C@H](NC(=O)[C@H](C)NC(=O)[C@@H]1CCCN1C(=O)[C@H](CC(N)=O)NC(=O)[C@H](CO)NC(=O)[C@H](CC(N)=O)NC(=O)[C@H](C)NC(=O)[C@H](CO)NC(=O)CCCC[C@@H]1SC[C@@H]2NC(=O)N[C@@H]21)C(=O)N[C@@H](C)C(=O)N1CCC[C@H]1C(=O)N[C@@H](CCCNC(=N)N)C(=O)N[C@@H](CCC(=O)O)C(=O)N[C@@H](CCCNC(=N)N)C(=O)N[C@@H](CCCCN)C(=O)N[C@@H](C)C(=O)NCC(=O)N[C@H]1CSSC[C@@H](C(=O)O)NC(=O)[C@H](CO)NC(=O)[C@H]([C@@H](C)O)NC(=O)[C@H](Cc2ccc(O)c(I)c2)NC(=O)[C@H]([C@@H](C)O)NC(=O)[C@H](CCCCN)NC(=O)[C@@H](Cc2c[nH]c3ccccc23)NC(=O)[C@H](Cc2ccccc2)NC(=O)[C@H](Cc2ccccc2)NC(=O)[C@H](CC(N)=O)NC(=O)[C@H](CCCCN)NC1=O [[^125 I]Bio-S28] (Biotin-SANSNPALAPRERKAGCKNFF[dW]KT[Tyr(3-I)]TSC-OH; disulfide 17-28) | 9.70 | 1,065,512 CPM bound/mg membrane protein | 35,049 CPM bound/mg membrane protein | 92,534 CPM | 31,645 CPM | 17,098 CPM | 66% | 82% | 91% | 9,316 CPM | 73% | 59,132 CPM | 28% | 15% | 72% |  |
| pertussis toxin |  |  |  |  |  |  |  |  |  |  |  |  |  |  |  | more than 95% |
